The nature of data set [1]: Sulfoxide formation, free base vs bis-HCl salt in lipid solution (Example 3). Format: physicochemical. Conditions: lipid solutions (PE-91, LOT-343) aged at 40°C for up to 3 weeks. How it is done: The solvent system in solution A is Phosal 53 MCT™/ethanol, 9:1 v/v; and in solution B is Labrafil M 1944 CS™/oleic acid/polysorbate 80, 30%/40%/30% by weight. (Labrafil M 1944 CS™ of Gattefossé contains polyoxyethylene glyceryl monooleate.) The three-week study was conducted at 40° C. without nitrogen purging of headspace. […] No antioxidant was included, nor was headspace nitrogen purging performed.

Data set [2] is described as follows: Drug solubility in ternary excipient systems (Example 2). Type of data set: physicochemical. The settings on record: 10% salt, 20% free base by weight. The source says:
Solvents evaluated included Labrafil M 1944 CS™, Imwitor 742™ oleic acid, Capmul PG-8™, Capmul PG-12™, Lauroglycol 90™ (propylene glycol monolaurate, available from Gattefosse) and Phosal 53 MCT™. Surfactants evaluated included Tween 80™, Cremophor RH40™, Gelucire 44/14™ (polyoxyethylene glyceryl laurate, available from Gattefosse) and Labrasol™.

Data set [3] can be described thus: Sulfoxide formation in various lipid solutions, two-week stress test (Example 4). Format: physicochemical. The settings on record: in Labrafil M 1944 CS and Plurol Oleique CC497; two-week stress test 40°C.
Data set [4] is described as follows: BHA as antioxidant in ternary lipid systems (Example 7). Type of data set: physicochemical. The procedure: A full report of this study is found in Example 7 herein.
Testing was done in stress conditions at 40° C. without nitrogen purging.

The nature of data set [5]: Antioxidant testing, two-week stress test (Example 6). Format: physicochemical. The settings on record: for inhibition of oxidative degradation: ABT-263 free base 100 mg/g in LIT-433 vehicle system, at the concentrations tested.
Data set [6] is classed as physicochemical. An excerpt: Due to poor lipid solubility of NaMTBS, an alternative way of introducing it to the lipid solution is by adding a concentrated aqueous stock solution of NaMTBS to the lipid solution.
Data set [7] in a line: Storage stability of prototype capsules with and without NaMTBS (Example 12). Type of data set: physicochemical. The settings on record: prototype ABT-263 capsules, especially at 40° C. and 75% RH. The source says:
The only difference between the two batches is presence or absence of antioxidant (sodium metabisulfite). The liquids having the composition shown in Table 16 were encapsulated in size 0 hard gelatin capsules and the capsules placed in blister packaging for a chemical stability study. Water content shown in Table 17 is as determined by analysis, and is not directly related to amount of water added with NaMTBS and edetate calcium disodium as in Table 16.

[8] abbreviates: C8LL (Capmul PG-8/Labrafil M 1944 CS/Labrasol) 40:40:20.
Setting [9] is: C12LT (Capmul PG-12/Labrafil M 1944 CS/Tween 80) 30:40:30.
Setting [10] is: C12LT (Capmul PG-12/Labrafil M 1944 CS/Tween 80) 35:40:25.
Where [11] appears, read: C12LT (Capmul PG-12/Labrafil M 1944 CS/Tween 80) 40:30:30.
Where [12] appears, read: C12LT (Capmul PG-12/Labrafil M 1944 CS/Tween 80) 45:30:25.
Where [13] appears, read: LLC (Lauroglycol 90/Labrafil M 1944 CS/Cremophor RH40) 45:30:25.
Setting [14] is: LLL (Lauroglycol 90/Labrafil M 1944 CS/Labrasol) 40:40:20.
The mark [15] stands for this setting: LLL (Lauroglycol 90/Labrafil M 1944 CS/Labrasol) 50:30:20.
[16] abbreviates: LOC (Labrafil M 1944 CS/oleic acid/Cremophor RH40) 30:60:10.
Setting [17] is: LOC (Labrafil M 1944 CS/oleic acid/Cremophor RH40) 40:50:10.
Setting [18] is: LOT (Labrafil M 1944 CS/oleic acid/Tween 80) 30:40:30.
Where [19] appears, read: LOT (Labrafil M 1944 CS/oleic acid/Tween 80) 30:45:25.
[20] abbreviates: LOT (Labrafil M 1944 CS/oleic acid/Tween 80) 40:30:30.
[21] abbreviates: LOT (Labrafil M 1944 CS/oleic acid/Tween 80) 40:35:25.
[22] abbreviates: OLL (oleic acid/Labrafil M 1944 CS/Labrasol) 40:40:20.
The mark [23] stands for this setting: OLL (oleic acid/Labrafil M 1944 CS/Labrasol) 50:30:20.
Setting [24] is: OLL (oleic acid/Labrafil M 1944 CS/Labrasol) 50:40:10.
[25] abbreviates: OLL (oleic acid/Labrafil M 1944 CS/Labrasol) 60:30:10.

As for `CC1(C)CCC(c2ccc(Cl)cc2)=C(CN2CCN(c3ccc(C(=O)NS(=O)(=O)c4ccc(N[C@H](CCN5CCOCC5)CSc5ccccc5)c(S(=O)(=O)C(F)(F)F)c4)cc3)CC2)C1.Cl.Cl` [ABT-263 bis-HCl salt], the “color change upon aging” value in data set [1] was “pronounced color darkening”. The ABT-263 solubility entry in data set [2] (setting [8]), in data set [2] (setting [9]), in data set [2] (setting [10]), in data set [2] (setting [11]), in data set [2] (setting [12]) and in data set [2] (ILC (Imwitor 742/Labrafil M 1944 CS/Cremophor RH40) 40:40:20) was “✓” each time. Besides, the ABT-263 solubility entry in data set [2] (ILC (Imwitor 742/Labrafil M 1944 CS/Cremophor RH40) 50:30:20), in data set [2] (ILC (Imwitor 742/Labrafil M 1944 CS/Cremophor RH40) 50:40:10), in data set [2] (ILC (Imwitor 742/Labrafil M 1944 CS/Cremophor RH40) 60:30:10), in data set [2] (ILL (Imwitor 742/Labrafil M 1944 CS/Labrasol) 40:40:20), in data set [2] (ILL (Imwitor 742/Labrafil M 1944 CS/Labrasol) 50:30:20) and in data set [2] (ILL (Imwitor 742/Labrafil M 1944 CS/Labrasol) 50:40:10) was “✓” throughout. Besides, the ABT-263 solubility result in data set [2] (ILL (Imwitor 742/Labrafil M 1944 CS/Labrasol) 60:30:10), in data set [2] (LIT (Labrafil M 1944 CS/Imwitor 742/Tween 80) 30:40:30), in data set [2] (LIT (Labrafil M 1944 CS/Imwitor 742/Tween 80) 30:45:25), in data set [2] (LIT (Labrafil M 1944 CS/Imwitor 742/Tween 80) 40:30:30), in data set [2] (LIT (Labrafil M 1944 CS/Imwitor 742/Tween 80) 40:35:25) and in data set [2] (setting [13]) was “✓” in each case. The ABT-263 solubility result in data set [2] (setting [14]), in data set [2] (setting [15]), in data set [2] (LLL (Lauroglycol 90/Labrafil M 1944 CS/Labrasol) 50:40:10), in data set [2] (LLL (Lauroglycol 90/Labrafil M 1944 CS/Labrasol) 60:30:10), in data set [2] (setting [16]) and in data set [2] (setting [17]) was “✓” in each case. Besides, the ABT-263 solubility result in data set [2] (setting [18]), in data set [2] (setting [19]), in data set [2] (setting [20]), in data set [2] (setting [21]), in data set [2] (setting [22]) and in data set [2] (setting [23]) was “✓” in each case. Besides, the ABT-263 solubility entry in data set [2] (setting [24]) and in data set [2] (setting [25]) was “✓” in each case.
Turning to `CC1(C)CCC(c2ccc(Cl)cc2)=C(CN2CCN(c3ccc(C(=O)NS(=O)(=O)c4ccc(N[C@H](CCN5CCOCC5)CSc5ccccc5)c(S(=O)(=O)C(F)(F)F)c4)cc3)CC2)C1` [ABT-263], the ABT-263 solubility result in data set [2] (setting [8]), in data set [2] (setting [9]), in data set [2] (setting [10]), in data set [2] (setting [11]), in data set [2] (setting [12]) and in data set [2] (setting [13]) was “✓” each time. Besides, the ABT-263 solubility result in data set [2] (setting [14]), in data set [2] (setting [15]), in data set [2] (setting [16]), in data set [2] (setting [17]), in data set [2] (setting [18]) and in data set [2] (setting [19]) was “✓” in each case. The ABT-263 solubility entry in data set [2] (setting [20]), in data set [2] (setting [21]), in data set [2] (setting [22]), in data set [2] (setting [23]), in data set [2] (setting [24]) and in data set [2] (setting [25]) was “✓” in each case. Also, in data set [3], the degradation result is reported as “significant degradation”.
As to `COc1ccc(O)c(C(C)(C)C)c1` [BHA, butylated hydroxyanisole], the “effect on sulfoxide formation” value in data set [4] (0.2% by weight BHA in 15% by weight ABT-263 free base in IPT-253, 4-week study at 40°C without nitrogen purging) is recorded as “no effect”. The “inhibition of sulfoxide formation” value in data set [4] (0.2% w/w BHA, ABT-263 150 mg/g in IPT-253 and LIT-433, 40°C without nitrogen purging) is given as “did not provide any inhibition”. Further, the “inhibition of oxidative degradation” value in data set [5] was “inhibited oxidative degradation to some extent”.
On to `Cc1cc(C(C)(C)C)c(O)c(C(C)(C)C)c1` [BHT, butylated hydroxytoluene], for which the “inhibition of oxidative degradation” value in data set [5] is on record as “inhibited oxidative degradation to some extent”.
As to `OCC(O)CS` (centres unmarked) [Thioglycerol, thioglycerol], in data set [5] (ABT-263 free base 100 mg/g, both vehicle systems (Lipoid S75 MCT, LIT-433)), the “inhibition of drug oxidation” value was “effective inhibition”.
On to `CCCCCCCCCCCCCCCC(=O)OC[C@H](O)[C@H]1OC(=O)C(O)=C1O` [ascorbyl palmitate], for which the “inhibition of oxidative degradation” value in data set [5] is listed as “inhibited oxidative degradation to some extent”.
With `O=S([O-])S(=O)(=O)[O-].[Na+].[Na+]` [sodium metabisulfite], the “final NaMTBS concentration giving a clear solution” value in data set [6] is at most 9.67 mg/mL. The “final NaMTBS concentration at which the lipid solution turned turbid” value in data set [6] (50 mg/ml free base solution in Phosal 53 MCT/ethanol 9:1 v/v, 15% w/v stock solution) is reported as ≥ 150 % relative molar concentration. Also, the “solubility of neat NaMTBS (solids remained)” value in data set [6] (5 days) is on record as under 0.05 % w/w. For the same compound, the “inhibition of formation of total sulfoxides” value in data set [7] was “significantly inhibited”. Also, the “inhibition of oxidative degradation” value in data set [5] is “inhibited oxidative degradation to some extent”.
On to `O=S([O-])([O-])=S.[Na+].[Na+]` [sodium thiosulfate], for which the “inhibition of oxidative degradation” value in data set [5] is reported as “inhibited oxidative degradation to some extent”.
Take α-tocopherols: in data set [5], the “inhibition of oxidative degradation” value was “ineffective”.

(Values after patent US8728516B2, “Stabilized lipid formulation of apoptosis promoter” (AbbVie Inc., priority 2009, dated 2014).)
